In ChEMBL document CHEMBL3045059, “Efficacy of ketoenols on insecticide resistant field populations of two-spotted spider mite Tetranychus urticae and sweet potato whitefly Bemisia tabaci from Greece” (2012):
≈ marks a conversion by molar mass, not a printed value.

Key:
Format in all cases: functional
Bemisia tabaci [1] = experiment: Resistance ratio, ratio of alpha-cypermethrin LC50 to compound LC50 for second-instar nymph stage of Bemisia tabaci (sweet potato whitefly) greenhouse population GR192
Bemisia tabaci [2] = experiment: Resistance ratio, ratio of imidacloprid LC50 to compound LC50 for second-instar nymph stage of Bemisia tabaci (sweet potato whitefly) greenhouse population GR192
Bemisia tabaci [3] = experiment: Resistance ratio, ratio of imidacloprid LC50 to compound LC50 for second-instar nymph stage of Bemisia tabaci (sweet potato whitefly) greenhouse population GR165
Bemisia tabaci [4] = experiment: Acaricidal activity against second-instar nymph stage of Bemisia tabaci (sweet potato whitefly) laboratory strain GRMAL-RN in cotton leaves assessed as mortality incubated for 5 secs measured after 10 to 12 days
Bemisia tabaci [5] = experiment: Acaricidal activity against second-instar nymph stage of Bemisia tabaci (sweet potato whitefly) laboratory strain GRMAL-RP in cotton leaves assessed as mortality incubated for 5 secs measured after 10 to 12 days
Bemisia tabaci [6] = experiment: Acaricidal activity against second-instar nymph stage of Bemisia tabaci (sweet potato whitefly) greenhouse population GR192 in cotton leaves assessed as mortality incubated for 5 secs measured after 10 to 12 days
Bemisia tabaci [7] = experiment: Acaricidal activity against second-instar nymph stage of Bemisia tabaci (sweet potato whitefly) greenhouse population GR258 in cotton leaves assessed as mortality incubated for 5 secs measured after 10 to 12 days
Bemisia tabaci [8] = experiment: (§1) Acaricidal activity against second-instar nymph stage of Bemisia tabaci (sweet potato whitefly) greenhouse population GR164 in cotton leaves assessed as mortality incubated for 5 secs measured after 10 to 12 days
Bemisia tabaci [9] = experiment: Acaricidal activity against second-instar nymph stage of Bemisia tabaci (sweet potato whitefly) field population GR163 in cotton leaves assessed as mortality incubated for 5 secs measured after 10 to 12 days
Bemisia tabaci [10] = experiment: Acaricidal activity against second-instar nymph stage of Bemisia tabaci (sweet potato whitefly) field population GR259 in cotton leaves assessed as mortality incubated for 5 secs measured after 10 to 12 days
Bemisia tabaci [11] = experiment: Acaricidal activity against second-instar nymph stage of Bemisia tabaci (sweet potato whitefly) greenhouse population GR194 in cotton leaves assessed as mortality incubated for 5 secs measured after 10 to 12 days
Bemisia tabaci [12] = experiment: Acaricidal activity against second-instar nymph stage of Bemisia tabaci (sweet potato whitefly) greenhouse population GR188 in cotton leaves assessed as mortality incubated for 5 secs measured after 10 to 12 days
Bemisia tabaci [13] = experiment: Acaricidal activity against second-instar nymph stage of Bemisia tabaci (sweet potato whitefly) field population GR157 in cotton leaves assessed as mortality incubated for 5 secs measured after 10 to 12 days
Bemisia tabaci [14] = experiment: Acaricidal activity against second-instar nymph stage of Bemisia tabaci (sweet potato whitefly) greenhouse population GR191 in cotton leaves assessed as mortality incubated for 5 secs measured after 10 to 12 days
Bemisia tabaci [15] = experiment: Acaricidal activity against second-instar nymph stage of Bemisia tabaci (sweet potato whitefly) greenhouse population GR187 in cotton leaves assessed as mortality incubated for 5 secs measured after 10 to 12 days
Bemisia tabaci [16] = experiment: Acaricidal activity against second-instar nymph stage of Bemisia tabaci (sweet potato whitefly) greenhouse population GR165 in cotton leaves assessed as mortality incubated for 5 secs measured after 10 to 12 days
Bemisia tabaci [17] = experiment: as §1, with “survival of the parent population at 30 mg/l” for “mortality”, “days by applying constant selection pressure under laboratory conditions” for “days”
Bemisia tabaci [18] = experiment: as §1, with “survival at 30 mg/l at the last selection cycle of four generations” for “mortality”, “days by applying constant selection pressure under laboratory conditions” for “days”
Bemisia tabaci [19] = experiment: Resistance ratio, ratio of alpha-cypermethrin LC50 to compound LC50 for second-instar nymph stage of Bemisia tabaci (sweet potato whitefly) laboratory strain GRMAL-RP
Bemisia tabaci [20] = experiment: Resistance ratio, ratio of alpha-cypermethrin LC50 to compound LC50 for second-instar nymph stage of Bemisia tabaci (sweet potato whitefly) greenhouse population GR258
Bemisia tabaci [21] = experiment: Resistance ratio, ratio of alpha-cypermethrin LC50 to compound LC50 for second-instar nymph stage of Bemisia tabaci (sweet potato whitefly) greenhouse population GR164
Bemisia tabaci [22] = experiment: Resistance ratio, ratio of alpha-cypermethrin LC50 to compound LC50 for second-instar nymph stage of Bemisia tabaci (sweet potato whitefly) field population GR259
Bemisia tabaci [23] = experiment: Resistance ratio, ratio of alpha-cypermethrin LC50 to compound LC50 for second-instar nymph stage of Bemisia tabaci (sweet potato whitefly) field population GR163
Bemisia tabaci [24] = experiment: Resistance ratio, ratio of alpha-cypermethrin LC50 to compound LC50 for second-instar nymph stage of Bemisia tabaci (sweet potato whitefly) greenhouse population GR194
Bemisia tabaci [25] = experiment: Resistance ratio, ratio of alpha-cypermethrin LC50 to compound LC50 for second-instar nymph stage of Bemisia tabaci (sweet potato whitefly) greenhouse population GR188
Bemisia tabaci [26] = experiment: Resistance ratio, ratio of alpha-cypermethrin LC50 to compound LC50 for second-instar nymph stage of Bemisia tabaci (sweet potato whitefly) field population GR157
Bemisia tabaci [27] = experiment: Resistance ratio, ratio of alpha-cypermethrin LC50 to compound LC50 for second-instar nymph stage of Bemisia tabaci (sweet potato whitefly) greenhouse population GR191
Bemisia tabaci [28] = experiment: Resistance ratio, ratio of alpha-cypermethrin LC50 to compound LC50 for second-instar nymph stage of Bemisia tabaci (sweet potato whitefly) greenhouse population GR165
Bemisia tabaci [29] = experiment: Resistance ratio, ratio of alpha-cypermethrin LC50 to compound LC50 for second-instar nymph stage of Bemisia tabaci (sweet potato whitefly) greenhouse population GR187
Bemisia tabaci [30] = experiment: Resistance ratio, ratio of imidacloprid LC50 to compound LC50 for second-instar nymph stage of Bemisia tabaci (sweet potato whitefly) laboratory strain GRMAL-RN
Bemisia tabaci [31] = experiment: Resistance ratio, ratio of imidacloprid LC50 to compound LC50 for second-instar nymph stage of Bemisia tabaci (sweet potato whitefly) greenhouse population GR258
Bemisia tabaci [32] = experiment: Resistance ratio, ratio of imidacloprid LC50 to compound LC50 for second-instar nymph stage of Bemisia tabaci (sweet potato whitefly) field population GR163
Bemisia tabaci [33] = experiment: Resistance ratio, ratio of imidacloprid LC50 to compound LC50 for second-instar nymph stage of Bemisia tabaci (sweet potato whitefly) greenhouse population GR164
Bemisia tabaci [34] = experiment: Resistance ratio, ratio of imidacloprid LC50 to compound LC50 for second-instar nymph stage of Bemisia tabaci (sweet potato whitefly) field population GR259
Bemisia tabaci [35] = experiment: Resistance ratio, ratio of imidacloprid LC50 to compound LC50 for second-instar nymph stage of Bemisia tabaci (sweet potato whitefly) greenhouse population GR194
Bemisia tabaci [36] = experiment: Resistance ratio, ratio of imidacloprid LC50 to compound LC50 for second-instar nymph stage of Bemisia tabaci (sweet potato whitefly) greenhouse population GR188
Bemisia tabaci [37] = experiment: Resistance ratio, ratio of imidacloprid LC50 to compound LC50 for second-instar nymph stage of Bemisia tabaci (sweet potato whitefly) greenhouse population GR191
Bemisia tabaci [38] = experiment: Resistance ratio, ratio of imidacloprid LC50 to compound LC50 for second-instar nymph stage of Bemisia tabaci (sweet potato whitefly) field population GR157
Bemisia tabaci [39] = experiment: Resistance ratio, ratio of imidacloprid LC50 to compound LC50 for second-instar nymph stage of Bemisia tabaci (sweet potato whitefly) greenhouse population GR187

## Cc1cc(C)c(C2=C(OC(=O)CC(C)(C)C)C3(CCCC3)OC2=O)c(C)c1 [SPIROMESIFEN]
Bemisia tabaci [1]
  RatioLC50: 179
Bemisia tabaci [2]
  RatioLC50: 323
Bemisia tabaci [3]
  RatioLC50: 73
Bemisia tabaci [4]
  LC95: 47.61 µg/mL (≈ 129 µM)
Bemisia tabaci [4]; Bemisia tabaci, GRMAL-RN, Nymph stage
  LC50: 6.7 µg/mL (≈ 18.1 µM)
Bemisia tabaci [5]
  LC95: 50.31 µg/mL (≈ 136 µM)
Bemisia tabaci [5]; Bemisia tabaci, GRMAL-RP, Nymph stage
  LC50: 1.1 µg/mL (≈ 2.97 µM)
Bemisia tabaci [6]
  LC95: 44.79 µg/mL (≈ 121 µM)
Bemisia tabaci [6]; Bemisia tabaci, GR192, Nymph stage
  LC50: 14 µg/mL (≈ 37.8 µM)
Bemisia tabaci [7]
  LC95: 49.19 µg/mL (≈ 133 µM)
Bemisia tabaci [7]; Bemisia tabaci, GR258, Nymph stage
  LC50: 12 µg/mL (≈ 32.4 µM)
Bemisia tabaci [8]
  LC95: 69.44 µg/mL (≈ 187 µM)
Bemisia tabaci [8]; Bemisia tabaci, GR164, Nymph stage
  LC50: 12 µg/mL (≈ 32.4 µM)
Bemisia tabaci [9]
  LC95: 85.08 µg/mL (≈ 230 µM)
Bemisia tabaci [9]; Bemisia tabaci, GR163, Nymph stage
  LC50: 11.6 µg/mL (≈ 31.3 µM)
Bemisia tabaci [10]
  LC95: 30.74 µg/mL (≈ 83 µM)
Bemisia tabaci [10]; Bemisia tabaci, GR259, Nymph stage
  LC50: 7.9 µg/mL (≈ 21.3 µM)
Bemisia tabaci [11]
  LC95: 49.23 µg/mL (≈ 133 µM)
Bemisia tabaci [11]; Bemisia tabaci, GR194, Nymph stage
  LC50: 6.4 µg/mL (≈ 17.3 µM)
Bemisia tabaci [12]
  LC95: 21.41 µg/mL (≈ 57.8 µM)
Bemisia tabaci [12]; Bemisia tabaci, GR188, Nymph stage
  LC50: 6.1 µg/mL (≈ 16.5 µM)
Bemisia tabaci [13]
  LC95: 139.9 µg/mL (≈ 378 µM)
Bemisia tabaci [13]; Bemisia tabaci, GR157, Nymph stage
  LC50: 5.4 µg/mL (≈ 14.6 µM)
Bemisia tabaci [14]
  LC95: 18.62 µg/mL (≈ 50.3 µM)
Bemisia tabaci [14]; Bemisia tabaci, GR191, Nymph stage
  LC50: 5.1 µg/mL (≈ 13.8 µM)
Bemisia tabaci [15]
  LC95: 24.95 µg/mL (≈ 67.3 µM)
Bemisia tabaci [15]; Bemisia tabaci, GR187, Nymph stage
  LC50: 4.6 µg/mL (≈ 12.4 µM)
Bemisia tabaci [16]
  LC95: 37.16 µg/mL (≈ 100 µM)
Bemisia tabaci [16]; Bemisia tabaci, GR165, Nymph stage
  LC50: 4.5 µg/mL (≈ 12.1 µM)
Bemisia tabaci [17]
  survival at 30 µg/mL: 27%
Bemisia tabaci [18]
  survival at 30 µg/mL: 13%
Bemisia tabaci [19]
  RatioLC50: >621
Bemisia tabaci [20]
  RatioLC50: 1190
Bemisia tabaci [21]
  RatioLC50: 42
Bemisia tabaci [22]
  RatioLC50: 741
Bemisia tabaci [23]
  RatioLC50: 478
Bemisia tabaci [24]
  RatioLC50: 142
Bemisia tabaci [25]
  RatioLC50: 105
Bemisia tabaci [26]
  RatioLC50: 426
Bemisia tabaci [27]
  RatioLC50: 179
Bemisia tabaci [28]
  RatioLC50: 256
Bemisia tabaci [29]
  RatioLC50: 101
Bemisia tabaci [30]
  RatioLC50: 958
Bemisia tabaci [31]
  RatioLC50: 369
Bemisia tabaci [32]
  RatioLC50: 46
Bemisia tabaci [33]
  RatioLC50: 7
Bemisia tabaci [34]
  RatioLC50: 323
Bemisia tabaci [35]
  RatioLC50: 247
Bemisia tabaci [36]
  RatioLC50: 353
Bemisia tabaci [37]
  RatioLC50: 120
Bemisia tabaci [38]
  RatioLC50: 88
Bemisia tabaci [39]
  RatioLC50: 94
